The source made the active and inactive calls. No cut-off for these calls is given here.

25 compounds from ChEMBL document CHEMBL5131381, “Design, synthesis, and mechanistic investigations of phenylalanine derivatives containing a benzothiazole moiety as HIV-1 capsid inhibitors with improved metabolic stability” (Eur J Med Chem, 2022) can be followed below.

Data set [1] has as its system Human immunodeficiency virus 1. The experiment in a line: Antiviral activity against HIV-1 3B infected in human MT4 cells assessed as protection against virus-induced cytopathic effect by MTT assay. Type of data set: functional, organism-based. The following applies: Human immunodeficiency virus 1, 3B. (In general: Protection from cytopathic effect is a common read-out in antiviral testing.)

In the next data set the test system is MT4. Put plainly: Cytotoxicity against mock infected human MT4 cells by MTT assay. Type of data set: toxicity, cell-based.
The nature of data set [2]: Metabolic stability in human plasma assessed as parent compound remaining measured after 120 mins by LC-MS/MS analysis. The format is ADME, cell-free. The following applies: 2 h.
The next data set is described as follows: in vitro. The conditions noted are these: human, liver microsomes. (In general: Microsomes from liver hold many membrane-bound enzymes, among them those of drug oxidation.)
In data set [3] the test system is Human immunodeficiency virus 1. The experiment in a line: Antiviral activity against HIV-1 NL4-3 Env-deficient pseudotype virus infected in U87/CD4/CCR5 cells assessed as reduction in viral infection in early stage measured after 48 hrs by luciferase activity based single-round infection assay. Type of data set: functional, organism-based.
The subject of data set [4] is Human immunodeficiency virus 1. The experiment in a line: Antiviral activity against HIV-1 NL4-3 Env-deficient pseudotype virus infected in U87/CD4/CCR5 cells assessed as reduction in viral infection in late stage measured after 48 hrs by luciferase activity based single-round infection assay. The format is functional, organism-based.

Broadly, the EC50 is the concentration giving half of the maximal effect. In general, CC50 refers to the concentration giving 50% cytotoxicity. Low values mean greater toxicity to the cells, high ones lower toxicity to the cells. Regarding `CN(C(=O)[C@H](Cc1ccccc1)NC(=O)c1cccc(C(=O)Nc2cccc(N)c2)c1)c1ccc2scnc2c1`, in data set [1], the half-maximal effective concentration (EC50) is 23.7 µM. Also, the CC50 in the data set on MT4 stood at 134 µM.

Turning to `CN(C(=O)[C@H](Cc1ccccc1)NC(=O)c1cccc(C(=O)Nc2ccccc2F)c1)c1ccc2scnc2c1`, the concentration giving a half-maximal response (EC50) in data set [1] worked out at 21.9 µM. Moreover, the CC50 with MT4 was 66.4 µM.

For `C#CCNC(=O)c1cccc(C(=O)N[C@@H](Cc2ccccc2)C(=O)N(C)c2ccc3scnc3c2)c1`, in data set [1], the half-maximal effective concentration (EC50) was 5.02 µM. Further, the Stability entry in data set [2] is “Stable”.

Take `Cc1ccc(NC(=O)c2cccc(C(=O)N[C@@H](Cc3ccccc3)C(=O)N(C)c3ccc4scnc4c3)c2)cc1`: the EC50 in data set [1] is 41.1 µM. This compound registered a CC50 in the data set on MT4 above 228 µM.

`CN(C(=O)[C@H](Cc1ccccc1)NC(=O)c1cccc(C(=O)Nc2ccc(Cl)cc2)c1)c1ccc2scnc2c1`: in data set [1], the EC50 is above 220 µM. Further, in the data set with MT4, the CC50 is above 220 µM.

As for `CN(C(=O)[C@H](Cc1ccccc1)NC(=O)c1cccc(C(=O)Nc2ccc(Br)cc2)c1)c1ccc2scnc2c1`, in data set [1], the concentration giving a half-maximal response (EC50) is at least 186 µM. The compound also showed a half-maximal cytotoxic concentration (CC50) with MT4 above 204 µM.

`COCCNC(=O)c1cccc(C(=O)N[C@@H](Cc2ccccc2)C(=O)N(C)c2ccc3scnc3c2)c1`: in data set [1], the concentration for a half-maximal effect (EC50) is 15.7 µM. In the data set on MT4, this compound came in with a CC50 of 203 µM.

Usually microsomal CLint stands for the capacity of the preparation to metabolise the compound, expressed as a volume cleared per time. High values mean rapid turnover, low ones slow turnover. As for `O=C(O)Cc1ccccc1Nc1c(Cl)cccc1Cl` [DICLOFENAC], the microsomal CLint in the data set “in vitro” worked out at 372 µL/min/mg.

On to `CN(C(=O)[C@H](Cc1ccccc1)NC(=O)c1cccc(C(=O)Nc2ccncc2)c1)c1ccc2scnc2c1`, for which the 50% effective concentration (EC50) in data set [1] was at least 41.4 µM. This compound had a cytotoxic concentration (CC50) in the data set on MT4 of 37.6 µM.

Take `CN(C(=O)[C@H](Cc1ccccc1)NC(=O)c1cccc(C(=O)Nc2ccc(C(F)(F)F)cc2)c1)c1ccc2scnc2c1`: the 50% effective concentration (EC50) in data set [1] is at least 39.5 µM. It took 88.2 µM to reach half-maximal cytotoxicity with MT4 (CC50).

Consider `CN(C(=O)[C@H](Cc1ccccc1)NC(=O)c1cccc(C(=O)NC2CCN(C(=O)OC(C)(C)C)CC2)c1)c1ccc2scnc2c1`, for which the EC50 in data set [1] is above 29.3 µM. In the data set with MT4, half-maximal cytotoxicity (CC50) was put at 29.3 µM.

Regarding `CN(C(=O)[C@H](Cc1ccccc1)NC(=O)c1cccc(C(=O)Nc2ccccc2N)c1)c1ccc2scnc2c1`, in data set [1], the half-maximal effective concentration (EC50) was above 25.4 µM. Further, the CC50 in the data set with MT4 amounted to 25.4 µM.

As for `CN(C(=O)[C@H](Cc1ccccc1)NC(=O)c1cccc(C(=O)Nc2ccc(F)cc2)c1)c1ccc2scnc2c1`, the EC50 in data set [1] was determined as 31.8 µM. In addition, in the data set on MT4, it took 54 µM to reach half-maximal cytotoxicity (CC50).

`CN(C(=O)[C@H](Cc1ccccc1)NC(=O)c1cccc(C(=O)Nc2cccc(NC(=O)OC(C)(C)C)c2)c1)c1ccc2scnc2c1`: the EC50 in data set [1] is above 193 µM. In the data set with MT4, this compound displayed a cytotoxic concentration (CC50) above 193 µM.

With `CN(C(=O)[C@H](Cc1ccccc1)NC(=O)c1cccc(C(=O)N2CCN(C(=O)OC(C)(C)C)CC2)c1)c1ccc2scnc2c1`, in data set [1], the EC50 stood at 13.5 µM. The compound also showed a CC50 in the data set on MT4 of 93.9 µM.

Take `CN(C(=O)[C@H](Cc1ccccc1)NC(=O)c1cccc(C(=O)Nc2ccc(NC(=O)OC(C)(C)C)cc2)c1)c1ccc2scnc2c1`: in data set [1], the EC50 is above 2.23 µM. The compound further registered a cytotoxic concentration (CC50) in the data set with MT4 of 2.23 µM.

Take `C[C@]12CC[C@H]3[C@@H](CCC4=CC(=O)CC[C@@]43C)[C@@H]1CC[C@@H]2O` [TESTOSTERONE]: in “in vitro”, the microsomal CLint was 82.8 µL/min/mg.

On to `CN(C(=O)[C@H](Cc1ccccc1)NC(=O)c1cccc(C(=O)Nc2cccc(F)c2)c1)c1ccc2scnc2c1`, for which, in data set [1], the concentration giving a half-maximal response (EC50) was above 226 µM. Also, the CC50 with MT4 is above 226 µM.

As for `CN(C(=O)[C@H](Cc1ccccc1)NC(=O)c1cccc(C(=O)Nc2ccc(N)cc2)c1)c1ccc2scnc2c1`, in data set [1], the EC50 was determined as 3.57 µM. For the same compound, the Stability entry in data set [2] is recorded as “Stable”. The outcome in data set [3] and in data set [4] was Active.

Turning to `CC(=O)c1ccc(NC(=O)c2cccc(C(=O)N[C@@H](Cc3ccccc3)C(=O)N(C)c3ccc4scnc4c3)c2)cc1`, the half-maximal effective concentration (EC50) in data set [1] is above 165 µM. The compound further had a CC50 in the data set on MT4 of 165 µM.

In the data set on MT4, `CN(C(=O)[C@H](Cc1ccccc1)NC(=O)c1cccc(C(=O)Nc2ccccc2NC(=O)OC(C)(C)C)c1)c1ccc2scnc2c1` had a half-maximal cytotoxic concentration (CC50) above 193 µM.

Turning to `CN(C(=O)[C@H](Cc1ccccc1)NC(=O)c1cccc(C(=O)Nc2ccc(OC(F)(F)F)cc2)c1)c1ccc2scnc2c1`, the 50% effective concentration (EC50) in data set [1] stood at 34.9 µM. Also, the CC50 in the data set on MT4 amounted to 118 µM.

Regarding `CN(C(=O)[C@H](Cc1ccccc1)NC(=O)c1cccc(C(=O)Nc2ccccc2)c1)c1ccc2scnc2c1`, in data set [1], the EC50 was found to be 22.4 µM. The compound further came in with a half-maximal cytotoxic concentration (CC50) in the data set with MT4 above 234 µM.

For `CN(C(=O)[C@H](Cc1ccccc1)NC(=O)c1cccc(C(=O)Nc2ccc(C#N)cc2)c1)c1ccc2scnc2c1`, the concentration giving a half-maximal response (EC50) in data set [1] worked out at 13.2 µM. Further, the CC50 in the data set with MT4 is above 224 µM.

In the case of `COc1ccc(NC(=O)c2cccc(C(=O)N[C@@H](Cc3ccccc3)C(=O)N(C)c3ccc4scnc4c3)c2)cc1`, the EC50 in data set [1] is at least 205 µM. In addition, the cytotoxic concentration (CC50) with MT4 was above 222 µM.
